Test [1] relates to human WT MSCs. The experiment in a line: OVA processing by human MSCs, flow cytometry. Type of test: cell-based. Conditions: CA-hnRNPA1-treated human MSCs. In general terms: In flow cytometry, cells or beads pass a laser one at a time.
Test [2] concerns WT MSCs. Briefly: OVA-DQ processing by WT MSCs. It is filed as cell-based, mouse. Conditions: OVA-DQ admixed with CA-hnRNPA1. Here is the method: (§1) To evaluate OVA uptake, MSCs were first treated with […] of OVA-AF647 admixed with CA-hnRNPA1 for 1 hour at 37° C. then assessed for their fluorescence intensity by flow-cytometry. To evaluate antigen processing, MSCs were incubated with 10 µg/mL OVA-DQ® admixed with A1 at 37° C. Half an hour later, cells were washed, and regular media added. At the end of the indicated incubation time, cells were collected and washed with cold PBS containing 2% FBS. Fluorescence was monitored by flow cytometry.

In test [3] the test system is human WT MSCs. The experiment in a line: OVA uptake by human MSCs, flow cytometry. Type of test: cell-based. Conditions: CA-hnRNPA1-treated human MSCs.
Test [4] relates to cross-presenting mesenchymal stromal cell line (cpMSC). The experiment in a line: Antigen-presentation assay using the B3Z reporter system, cross-presenting MSC line. It is filed as cell-based. The conditions noted are these: cpMSCs, OVA admixed, vs OVA alone or OVA mixed with CA-SV40NLS. The procedure:
Various bile acid-NLS conjugates were screened using the B3Z reporter system. The B3Z cell line is a T-cell hybridoma specific for the H2-K^b-[…] complex. Once activated via its TCR, the LacZ reporter gene (under the NFAT promoter control) is expressed. Briefly, 1.5×10^5 BMDCs or 2.5×10^5 MSCs were co-cultured with 5×10^4 B3Z cells treated with the mixing conditions of ovalbumin (OVA) and bile acid-NLS conjugates for overnight at 37° C. with 5% CO2. The following day, all cells were washed twice with PBS (pH 7.4), and the cell pellets were lysed by adding 100 μL of a lysis buffer containing 0.15 mM chlorophenol red-beta-D-galactopyranoside (CPRG) substrate (Calbiochem, La Jolla, CA), 0.125% NP40 (EMD Sciences, La Jolla, CA), 9 mM MgCl2 (Aldrich, USA) and 100 mM 2-mercaptoethanol in PBS. After a 5- or 24-h incubation at 37° C., absorbance was taken at 570 nm with 636 nm as the reference wavelength. For these experiments, OVA was re-suspended in PBS (pH 7.3) at 5-10 mg/mL. The different bile acid-NLS conjugates were re-suspended in H2O at 10 mg/mL. Bile acid-NLS conjugate: antigen mixtures were prepared at different molar ratios according to Table 1.
Further variants of CA-SV40NLS were synthesized in which the SV40NLS peptide was replaced with peptides comprising other NLS's (Table 5) and the antigen presentation activities of the CA-NLS peptide conjugates were evaluated using the B3Z reporter system as described in Example 1. The following conjugate: antigen molar ratios were tested for each conjugate: 2:1, 4:1, 8:1, 12:1 and 22:1. The results in FIGS. 12-15 compare the antigen presentation activities of different conjugates at the conjugate: antigen ratio that yielded the highest B3Z response (OD570) for that conjugate.

The test system of test [5] is WT MSCs. The experiment in a line: OVA-AF647 uptake by WT MSCs. Type of test: cell-based, mouse. Conditions: OVA-AF647 admixed with CA-hnRNPA1. Here is the method:
as §1

Test [6] has as its system mesenchymal stromal cells (MSCs). Briefly: OVA-AF647 intracellular delivery, flow cytometry. Type of test: cell-based. The conditions noted are these: OVA-AF647 mixed with 45 μM conjugate, nine hours, vs cargo alone. Here is the method: Mesenchymal stromal cells (MSCs) were incubated with either unconjugated fluorescently labeled OVA-AF647 alone or mixed with 45 μM of CA-HnRPA1 NLS steroid acid-peptide for nine hours and then intracellular OVA-AF647 delivery was assessed by flow cytometry as described in Example 1. […] The experiment was repeated with DQ™ OVA as cargo to evaluate the intracellular fate of the cargo delivered upon coincubation with CA-HnRPA1 NLS, as described in Example 4.

A further test deals with cpMSCs. Briefly: OVA-DQ processing in cpMSCs, flow cytometry. It is filed as cell-based. The conditions noted are these: various molar ratios. Here is the method: For this experiment, a cross-presenting mesenchymal stromal cell line (cpMSC) was used as the antigen presenting cells, which were pulsed with DQ™ Ovalbumin (i.e., OVADQ). OVADQ fluorescence was measured by flow cytometry. Different ratios of CA (NLS1 RSP17 [FIG. 17A]; NLS3 RPS17 [FIG. 17B]; and PQBP-1 [FIG. 17C] to antigen (CA: OVA=22:1, 12:1, 8:1, 4:1, and 2:1) were tested (hnRNPA1 M9 NLS at 2:1).
To further dissect the effect of bile acid peptide conjugates on antigen presentation, antigen internalization and processing were evaluated. cpMSCs were pulsed with OVA-labelled with AF647 in the presence of various molar ratios of different bile acid peptide conjugates, NLS1-RPS17 [FIG. 16A]; NLS3 RPS17 [FIG. 16B]; PQBP-1 [FIG. 16C]; and hnRNPA1 M9 NLS [FIG. 6]) and fluorescence was assessed by flow cytometry. […] OVA processing was assessed by pulsing cpMSCs with DQ™-Ovalbumin (OVA-DQ) in the presence of the same bile acid peptide conjugates as in FIGS. 6 and 16.

The test system of test [7] is WT MSCs. Briefly: Flow cytometry of H2-Kb and I-Ab expression. Type of test: cell-based, mouse. The conditions noted are these: WT MSCs treated with CA-hnRNPA1. From the text: FIG. 18A and FIG. 18B show the results of antigen cross-presentation assay conducted using CA-hnRNPA1 admixed with OVA compared to controls and CA-SV40. […] For FIGS. 18B, 18E and 18F, n=6/group with *P<0.05, **P<0.01 and ***P<0.001.
FIG. 18G and FIG. 18H show the increase in H2-Kb and I-Ab expression in WT MSCs treated with CA-hnRNPA1, respectively.

In another test the test system is MSCs. Briefly: Cytokine and chemokine analysis (Luminex). The conditions noted are these: 50 μM CA-hnRNPA1, 6 h. Type of test: cell-based, mouse. The procedure: For cytokine and chemokine profiling, 15 cm cell culture dishes containing 80-90% confluent MSCs were grown in serum-free AMEM for 24 h at 37° C. and 5% CO2. MSCs were then treated with 50 μM of CA-hnRNPA1 in serum-free AMEM for 6 h. The supernatant was collected and fresh serum-free AMEM was replenished, without CA-hnRNPA1. After 24 h of the initial CA-hnRNPA1 treatment, the supernatant was collected and gathered with the previous one collected. Collected supernatants were then concentrated using the Amicon Ultra-4™ centrifugal filters (3000 NMWL) for 1 h at 4° C. Collected concentrates (80×) were then frozen at −80° C. until shipped to EveTechnologies™ (Calgary, AB, Canada) for cytokine/chemokine assessment by […].

Where no end group is shown, it is not given here.

On to “CA-hnRNPA1: cholic acid conjugated to hnRNPA1 M9 NLS peptide CSNFGPMKGGNFGGRSSGPY (SEQ ID NO: 4) (not fully specified (N-terminus); also: cholic acid conjugate, site not given here)”, for which the “OVA processing by human MSCs” value in the test with human WT MSCs [1] is “increase of OVA processing”. Further, the “OVA processing by WT MSCs” value in the test with WT MSCs [2] is “increase in OVA processing”. In the test on human WT MSCs [3], the “OVA uptake by human MSCs” value is reported as “increase of OVA uptake”. Besides, the “antigen-presentation activity of cholic acid-NLS peptide conjugates (B3Z response)” value is “amongst the best enhancers of cross presentation” in [4] and “highly enhance cross presentation” in [4] (listed as CA-hnRNPA1 M9 NLS). In the test with WT MSCs [5], the “OVA uptake by WT MSCs” value is “increase in OVA uptake”. The “intracellular OVA-AF647 cargo delivery” value in [6] (listed as CA-HnRPA1) is “increased intracellular cargo delivery”; in test [6] (listed as CA-hnRPA1 M9 NLS), “increased intracellular delivery”. The “OVA processing (OVA-DQ fluorescence)” value in the test on cpMSCs is on record as “enhance OVA processing”. In the test with WT MSCs [7], the I-Ab expression entry is given as “increase”. In the test on MSCs, the “cytokine levels (Luminex)” value is “increases in various cytokines”.

The record behind these values is patent US20250049914A1, “STEROID ACID-PEPTIDE BASED INTRACELLULAR CARGO DELIVERY” (DEFENCE THERAPEUTICS INC., priority 2021, published 2025).
